Measured values reported in patent publication US10799442B2, “Compounds useful in the treatment and/or care of the skin, hair, nails, and/or mucous membranes” (LUBRIZOL ADVANCED MATERIALS, INC., priority 2015, dated 2020).

Experiments:
OCT4 = assay: Modulation of stem cell markers in HEKa, Real Time PCR Arrays (OCT4 mRNA); assay type: cell-based, Human; conditions: 48 hours
Method: The candidate compound is evaluated for the modulation of several stem cell markers, those transcription factors regulated by miRNA145 (SOX2, OCT4, KLF4 and MYC). Gene expression profiles are analyzed by Real Time PCR Arrays using a 96-well panel for use with SYBR® Green (BioRad) to detect mRNA expression levels of stem cell markers plus three housekeeping genes, and five controls, in Human Epidermal Keratinocytes from adult (HEKa) (Cascade Biologics).
HEKa cells are seeded at 6.0×10^5 cells/well in 6-well plates and incubated in culture medium, Epilife with defined Growth Supplement (EDGS) (Cascade Biologics), for 24 hours at 37° C. in a water-saturated atmosphere of 95% air and 5% CO2. After 24 hours, the medium is removed and the cells are incubated with the synthetic peptide DD14024 at several concentrations in a culture medium. Cells are incubated with culture medium only and these provide the basal conditions. After 48 hours of treatment at 37° C. in a CO2 incubator, the cells are lysed directly in the wells, and RNA is purified following the protocol described on the RNeasy Mini kit (Qiagen) according to the manufacturer's protocol. After RNA elution, quantification and analysis of purity of RNA samples are performed with a biophotometer (Eppendorf). For each sample, 2 μg of high quality RNA is retrotranscribed with iScript Advanced (BioRad) in a final volume of 20 μl. The complete reaction mix is incubated in a thermal cycler (Eppendorf) at 42° C. for 30 minutes and the reaction is stopped at 85° C. for 5 minutes (?). Complementary DNA is amplified by qPCR in a real-time PCR thermocycler (BioRad) using SYBR Green Supermix (BioRad) in the 96-well panel for use with SYBR® Green (BioRad). SYBR Green binds to double-stranded DNA molecules and emits fluorescence which is quantified; the fluorescence intensity is proportional to the amount of the product in the PCR reaction. […] Fold change relative to the expression of the sample genes and reference genes is calculated using normalized expression (ΔΔ(Ct)) method using CFX Manager Software (BioRad). […]

Keratin 14 = assay: Keratins expression profile in HEKa with 1 mM CaCl2, Real Time PCR Arrays (Keratin 14); assay type: cell-based, Human; conditions: Keratin 14 mRNA, 48 hours
Method: The candidate compound is assayed for its ability to recover the basal keratinocyte state. The keratinocytes of the four layers of the epidermis present different expression patterns of keratins. Basal keratinocytes strongly express Keratin 14 and when differentiated, Keratin 10 is increased. To elucidate the keratinocyte state (basal or differentiated), the expression profile of keratins is analyzed by Real Time PCR Arrays, using a 96-well panel for use with SYBR® Green (BioRad) to detect mRNA expression levels of two keratin genes (Keratins 10 and 14) plus three housekeeping genes, and five controls, in Human Epidermal Keratinocytes from adult (HEKa) (Cascade Biologics).
HEKa cells are seeded at 6.0×10^5 cells/well in 6-well plates and incubated in culture medium Epilife with defined Growth Supplement (EDGS) (Cascade Biologics), for 24 hours at 37° C. in a water-saturated atmosphere of 95% air and 5% CO2. After 24 hours, the medium is removed and the cells are incubated with the synthetic peptide candidate at several concentrations in culture medium that contains 1 mM CaCl2) (Sigma) to induce differentiation of keratinocytes. Cells are incubated with 1 mM CaCl2) in culture medium and this provides a positive control of differentiation. Cells are incubated with culture medium only and these provide basal conditions. After 48 hours of treatment at 37° C. in a CO2 incubator, the cells are lysed directly in the wells, and RNA is purified following the protocol described on the RNeasy Mini kit (Qiagen) according to the manufacture's protocol. After RNA elution, quantification and analysis of purity of RNA samples are performed with a biophotometer (Eppendorf). […] SYBR Green binds to double-stranded DNA molecules and emits fluorescence which is quantified; the fluorescence intensity is proportional to the amount of the product in the PCR reaction. […] Fold change relative to the expression of the sample genes and reference genes is calculated using normalized expression (ΔΔ(Ct)) method using CFX Manager Software (BioRad).

For “Ac-QEMRMQ-OH [DD14024, Ac-Gln-Glu-Met-Arg-Met-Gln-OH]”, the “Fold induction respect to basal conditions” value (OCT4; 0.001 mg/ml) was 1.65 ± 0.13, the “Fold induction respect to basal conditions” value (OCT4; 0.005 mg/ml) was 1.81 ± 0.28 and the “Fold induction respect to basal conditions” value (OCT4; 0.01 mg/ml) was 1.71 ± 0.29. The “Fold induction respect to positive control of differentiation” value (Keratin 14; 1 mM CaCl2, 0.001 mg/ml) was 1.29 ± 0.15, the “Fold induction respect to positive control of differentiation” value (Keratin 14; 1 mM CaCl2, 0.005 mg/ml) was 1.36 ± 0.15 and the “Fold induction respect to positive control of differentiation” value (Keratin 14; 1 mM CaCl2, 0.01 mg/ml) was 1.30 ± 0.09.
